Columns and labels:
[1] = target: T1, Mutant NTD (all five histidine residues in the HP repeats mutated to alanine) (Homo sapiens, UniProt Q9UPI3, H30A/H36A/H48A/H54A/H66A); assay: Heme absorbance-shift assay with mutant NTD; format: binding
T1 construct: Plasmid harboring GST-His-tag-SUMO-NTD (amino acids 1-84); GST-His-tag-SUMO (N, cleaved yes); made in house; host or cells: Escherichia coli

[2] = target: T2, endogenous MFSD7C and SERCA2b (Mus musculus, UniProt Q91X85); assay: Co-IP of endogenous MFSD7C and SERCA2b in bone marrow-derived macrophages; format: cell-based; conditions: bone marrow-derived wild-type macrophages, heme treatment
T2 construct: Co-IP and immunoblotting analysis of endogenous MFSD7C with ATP5h, SERCA2b and HMOX1 in bone marrow-derived macrophages; endogenous in cells; host or cells: bone marrow-derived macrophages from C57BL/6 mice
T2 sequence (Q91X85 whole entry): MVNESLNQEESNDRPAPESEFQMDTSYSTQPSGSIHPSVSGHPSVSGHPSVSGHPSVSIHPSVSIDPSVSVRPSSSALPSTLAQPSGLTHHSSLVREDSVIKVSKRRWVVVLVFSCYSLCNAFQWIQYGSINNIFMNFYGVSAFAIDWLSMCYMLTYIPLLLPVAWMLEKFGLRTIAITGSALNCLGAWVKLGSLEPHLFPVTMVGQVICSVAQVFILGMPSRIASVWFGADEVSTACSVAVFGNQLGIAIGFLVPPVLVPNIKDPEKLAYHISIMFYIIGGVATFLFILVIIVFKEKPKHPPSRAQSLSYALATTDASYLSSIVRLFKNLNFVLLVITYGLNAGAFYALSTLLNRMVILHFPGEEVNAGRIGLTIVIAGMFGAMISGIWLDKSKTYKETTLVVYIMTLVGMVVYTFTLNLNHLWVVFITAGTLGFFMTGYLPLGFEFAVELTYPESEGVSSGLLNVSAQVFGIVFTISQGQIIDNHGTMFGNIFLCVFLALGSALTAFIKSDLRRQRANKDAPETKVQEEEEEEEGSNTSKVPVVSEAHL
Protocol: NTD was incubated with heme and run on Superdex 75 gel filtration column. The flow through was measured for absorbance at 230 nm (gray), 380 nm (blue), and 415 nm (green). Absorbance intensity was normalized to maximum value. […] Heme (100 μM) absorption was set to zero. […] Wildtype (WT) and mutant (Mut) peptide sequences are shown. […] Shown are representative data from five separate experiments. […] Shown are immunoblots of MFSD7C, ATP5h, SERCA2b, and HMOX1 on whole lysates or immunoblots of MFSD7C on anti-ATP5h, anti-SERCA2b and anti-HMOX1 immunoprecipitates. Representative data from one from three experiments are shown. […] Shown are representative data from three separate experiments. WCE: whole cell extract, Sup: supernatant, Mito: 10,000 g mitochondrial fraction. […] THP-1 cells were stained with MitoTracker (green), fixed and permeabilized, and then stained with rabbit polyclonal antibody specific for the C-terminus of MFSD7C, followed with Alexa Fluor® 594-labelled goat anti-rabbit antibody (red). Nuclei were labeled using DAPI (blue). […]
Differentiation of bone marrow-derived macrophage (BMDM). […] Cells were resuspended in DMEM media containing 10% FBS, 2 mM L-glutamine, 2 mM pyruvate, non-essential amino acids (100 μM each), 0.55 mM 2-mercaptoethanol, penicillin/streptomycin), passed through a 40 μm Falcon cell strainer (VWR) to remove large aggregates, and counted. […]

[3] = target: T3, MFSD7C interactions with ETC components (CYC1, NDUFA4, COX4i1, ATP5h, ATP5c1) (Mus musculus, UniProt Q91X85); assay: Co-IP of HA-tagged MFSD7C with FLAG-tagged ETC components in transfected 293FT cells; format: cell-based, murine; conditions: 10 μM or 40 μM heme for one hour before cell lysis, increasing level
T3 construct: expressed in transfected cells; host or cells: 293FT cells
T3 sequence (Q91X85 whole entry): as above
Protocol: Co-transfection and immunoprecipitation. For co-IP, HA-tagged MFSD7C was co-transfected with FLAG-tagged HMOX1 (Origene Catalog No. MR203944), CYC1, COX4I1, NDUFA4, ATP5h, ATP5c1 into 293FT cells using TransIT®-LT1 Transfection Reagent (Mirus). Thirty-six hours after transfection, the cells were lysed using cold Lysis Buffer containing 20 mM Tris-HCl (pH 7.4), 150 mM NaCl, 0.1% NP-40, 10% glycerol, proteinase inhibitor (Sigma Catalog No. 4693132001), and phosphatase inhibitors (Sigma Catalog No. 4906845001). The clear supernatants from the lysate were incubated with M2-magnetic beads conjugated with anti-FLAG antibody (Sigma Catalog No. M8823) for 2 hours at 4° C. Then the beads were washed twice and eluted by the 3× FLAG peptides (Sigma Catalog No. F4799).
To determine the effect of heme on MFSD7C interactions with ETC components, HMOX1 or SERCA2b, 293FT cells were transiently transfected with HA-tagged murine MFSD7C and FLAG-tagged murine CYC1, NDUFA4, COX4i1, ATP5h, ATP5c1, HMOX1 or SERCA2b. 35 hrs later, co-transfected cells were incubated with DMSO (vehicle) or 10 μM or 40 μM of heme for one hour before lysis. Cell lysates were precipitated with anti-HA antibody, eluted with HA peptide, further precipitated with anti-FLAG antibody, eluted with FLAG peptide, and then subjected to Western blotting with anti-HA and anti-FLAG antibodies. […]

T1 sequence (Q9UPI3 1-84 H30A/H36A/H48A/H54A/H66A): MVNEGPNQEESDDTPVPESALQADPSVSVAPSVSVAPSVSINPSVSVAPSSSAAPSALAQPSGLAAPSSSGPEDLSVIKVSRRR

SMILES: C=CC1=C(C)c2cc3[n-]c(cc4[n-]c(cc5nc(cc1n2)C(C)=C5C=C)c(C)c4CCC(=O)O)c(CCC(=O)O)c3C.[Fe+2] [heme]
- absorbance shift of heme [1]: abolished
- co-IP of endogenous MFSD7C and SERCA2b [2]: diminished
- ETC components co-precipitated with MFSD7C [3]: less or very little ETC components co-precipitated with MFSD7C
